Here are results for 36 compounds from patent US20160137639A1, “TRIAZOLE-ISOXAZOLE COMPOUND AND MEDICAL USE THEREOF” (JAPAN TOBACCO INC., priority 2012, published 2016).

By EC50 is commonly meant the concentration that produces a half-maximal response.

Read-outs that look alike come from different tables or passages of the source.

The target in experiment [1] is T1, human RORγ (Homo sapiens, UniProt P51449).
T1 construct: human, NM_005060.3 and from Ser253 to Lys518; expressed in transfected cells; host or cells: CHO cells (transient co-transfection with pG5-Luc reporter)
T1 sequence (P51449 253-518): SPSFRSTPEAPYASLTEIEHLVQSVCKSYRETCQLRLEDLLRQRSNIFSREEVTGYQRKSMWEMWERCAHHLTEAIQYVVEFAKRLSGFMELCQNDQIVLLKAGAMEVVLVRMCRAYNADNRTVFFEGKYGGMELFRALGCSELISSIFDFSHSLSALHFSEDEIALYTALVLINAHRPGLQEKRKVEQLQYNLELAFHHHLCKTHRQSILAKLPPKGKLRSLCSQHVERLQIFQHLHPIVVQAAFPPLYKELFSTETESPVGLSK
In words: Luciferase reporter gene assay of inhibitory effect against RORγ transcriptional activity (GAL4-hRORγ plasmid in CHO cells). The format is cell-based. (In general: A reporter such as luciferase makes a cellular process visible.)

Experiment [2] concerns the target T2, mouse RORγ (Mus musculus, UniProt P51450).
T2 construct: mouse, NM_011281.2 and from Ile251 to Lys516; expressed in transfected cells; host or cells: CHO cells (transient co-transfection with pG5-Luc reporter)
T2 sequence (P51450 251-516): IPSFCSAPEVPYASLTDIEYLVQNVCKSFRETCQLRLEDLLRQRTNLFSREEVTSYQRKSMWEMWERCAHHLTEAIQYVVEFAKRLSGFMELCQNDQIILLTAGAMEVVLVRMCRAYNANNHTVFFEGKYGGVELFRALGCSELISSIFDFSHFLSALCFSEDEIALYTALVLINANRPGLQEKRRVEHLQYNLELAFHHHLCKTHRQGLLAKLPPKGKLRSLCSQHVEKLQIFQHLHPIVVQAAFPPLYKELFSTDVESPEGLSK
In words: Luciferase reporter gene assay of inhibitory effect against RORγ transcriptional activity (GAL4-mRORγ plasmid in CHO cells). The format is cell-based. The procedure, abridged:
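Readout is intracellular luciferase after 2-day compound exposure (8 concentrations, 0.1% DMSO) in CHO cells expressing GAL4 fused to mouse RORγ LBD residues Ile251–Lys516 plus pG5-Luc reporter. EC50 fitted from %-of-control; points showing resazurin-detected cytotoxicity dropped.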

`CC(=O)N1C[C@H](C(=O)Nc2ccc(C)cc2C)[C@@H](c2nnc(C3CC4(CCCCC4)C3)n2C2CC2)C1` (racemic) [Example F-452]: the EC50 in experiment [1] (read-out: LUC EC50 (μM) hRORg) and in experiment [2] (read-out: LUC EC50 (μM) mRORg) was < 3 µM throughout.
With `Cc1ccc(NC(=O)C[C@@H](CCO)c2noc([C@H]3C[C@@H](CC(C)C)C3)c2C2CC2)c(C)c1` [Example F-579], the EC50 in experiment [1] (read-out: LUC EC50 hRORg) and in experiment [2] (read-out: LUC EC50 mRORg) was < 3 µM each time.
Take `Cc1ccc(NC(=O)C[C@H](OCC(F)(F)F)c2nnc([C@H]3C[C@@H](CC(C)C)C3)n2C2CC2)c(C)c1` [Example F-609]: the EC50 in experiment [1] (read-out: LUC EC50 hRORg) and in experiment [2] (read-out: LUC EC50 mRORg) was < 3 µM throughout.
Take `Cc1ccc(C(F)(F)F)cc1NC(=O)CCc1nnc(CCC(C)C)n1C1CC1` [Example F-151]: the EC50 in experiment [1] (read-out: LUC EC50 (μM) hRORg) and in experiment [2] (read-out: LUC EC50 (μM) mRORg) was > 3 µM each time.
Consider `Cc1ccc(CNC(=O)CCc2nnc(CCC(C)C)n2C2CC2)c(O)c1` [Example F-149], for which the EC50 in experiment [1] (read-out: LUC EC50 (μM) hRORg) and in experiment [2] (read-out: LUC EC50 (μM) mRORg) was > 3 µM throughout.
`CC(=O)N1C[C@H](C(=O)Nc2ccc(C)cc2C)[C@@H](c2nnc(-c3cc(CC(C)C)on3)n2C2CC2)C1` [Example F-408]: the EC50 in experiment [1] (read-out: LUC EC50 (μM) hRORg) and in experiment [2] (read-out: LUC EC50 (μM) mRORg) was < 3 µM each time.
Consider `CCN(CC)C(=O)CN1C[C@H](C(=O)Nc2ccc(C)cc2C)[C@@H](c2nnc([C@H]3C[C@@H](CC(C)(C)C)C3)n2C2CC2)C1` [Example F-649], for which the EC50 in experiment [1] (read-out: LUC EC50 hRORg) and in experiment [2] (read-out: LUC EC50 mRORg) was < 3 µM throughout.
As to `Cc1ccc(NC(=O)CCc2nnc(CCC3CCC(F)(F)CC3)n2C2CC2)c(C)c1` [Example F-256], the EC50 in experiment [1] (read-out: LUC EC50 (μM) hRORg) and in experiment [2] (read-out: LUC EC50 (μM) mRORg) was < 3 µM each time.
In the case of `Cc1ccc(NC(=O)CC(CCC(=O)O)c2nnc(CCCC(C)C)n2C2CC2)c(C)c1` (racemic) [Example F-283], the EC50 in experiment [1] (read-out: LUC EC50 (μM) hRORg) and in experiment [2] (read-out: LUC EC50 (μM) mRORg) was > 3 µM throughout.
`Cc1ccc(NC(=O)C[C@H](CC(=O)NC(C)(C)C)c2noc([C@H]3C[C@@H](CC(C)C)C3)c2C2CC2)c(C)c1` [Example F-639]: the EC50 in experiment [1] (read-out: LUC EC50 hRORg) and in experiment [2] (read-out: LUC EC50 mRORg) was < 3 µM throughout.
Turning to `Cc1ccc(NC(=O)C[C@H](CCC(=O)O)c2noc(-c3cc(C4CCCC4)on3)c2C2CC2)c(Cl)c1` [Example E-24], the EC50 in experiment [1] (read-out: LUC EC50 (μM) hRORg) and in experiment [2] (read-out: LUC EC50 (μM) mRORg) was < 3 µM each time.
For the compound `Cc1ccc(NC(=O)C[C@H](CCC(=O)O)c2onc([C@H]3C[C@@H](CC(C)(C)C)C3)c2C2CC2)c(Cl)c1` [Example F-715, (S)-5-(2-Chloro-4-methyl-phenylcarbamoyl)-4-{4-cyclopropyl-3-[3-(2,2-dimethyl-propyl)-cyclobutyl]-isoxazol-5-yl}-pentanoic acid], the EC50 in experiment [1] (read-out: LUC EC50 hRORg) and in experiment [2] (read-out: LUC EC50 mRORg) was < 3 µM in each case.
`Cc1ccc(NC(=O)CCc2nnc(-c3ccc(O)cc3)n2C2CC2)c(C)c1` [Example F-442]: the EC50 in experiment [1] (read-out: LUC EC50 (μM) hRORg) and in experiment [2] (read-out: LUC EC50 (μM) mRORg) was > 3 µM throughout.
For `CC(C)C[C@H]1C[C@@H](c2nnc([C@@H](CCO)CC(=O)Nc3ccc(Cl)cc3F)n2C2CC2)C1` [Example F-519], the EC50 in experiment [1] (read-out: LUC EC50 hRORg) and in experiment [2] (read-out: LUC EC50 mRORg) was < 3 µM each time.
Regarding `CC(C)C[C@H]1C[C@@H](c2nnc([C@@H](CCO)CC(=O)Nc3ccc(C(F)(F)F)cc3C(F)(F)F)n2C2CC2)C1` [Example F-524], the EC50 in experiment [1] (read-out: LUC EC50 hRORg) and in experiment [2] (read-out: LUC EC50 mRORg) was < 3 µM in each case.
Consider `Cc1ccc(NC(=O)C[C@@H](CC#N)c2nnc([C@H]3C[C@@H](CC(C)C)C3)n2C2CC2)c(C)c1` [Example F-464], for which the EC50 is > 3 µM in experiment [1] (read-out: LUC EC50 (μM) hRORg) and < 3 µM in experiment [2] (read-out: LUC EC50 (μM) mRORg).
On the same counts, the results for `CC(=O)N1C[C@H](C(=O)Nc2ccc(C)cc2C)[C@@H](c2nnc(-c3ccc(C(C)C)cc3)n2C2CC2)C1` (racemic) [Example F-319] are < 3 µM and < 3 µM.
On the same counts, the results for `CCn1c(CCC(=O)Nc2cc(C)cc(C)c2)nnc1CCC(C)(C)C` [Example F-46] are > 3 µM and > 3 µM.
As for `Cc1ccc(NC(=O)[C@H]2CN(S(=O)(=O)C(F)(F)F)C[C@@H]2c2nnc([C@H]3C[C@@H](CC(C)(C)C)C3)n2C2CC2)c(C)c1` [Example F-542], the EC50 in experiment [1] (read-out: LUC EC50 hRORg) and in experiment [2] (read-out: LUC EC50 mRORg) was < 3 µM each time.
As for `Cc1cnc(NC(=O)C[C@H](CCC(=O)O)c2noc([C@H]3C[C@@H](CC(C)(C)C)C3)c2C2CC2)c(C)c1` [Example F-681], the EC50 in experiment [1] (read-out: LUC EC50 hRORg) and in experiment [2] (read-out: LUC EC50 mRORg) was < 3 µM throughout.
Turning to `CC(=O)N1C[C@H](C(=O)Nc2ccc(C)cc2C)[C@@H](c2nnc(C3CC3CC(C)C)n2C2CC2)C1` (mixture of isomers) [Example F-340], the EC50 in experiment [1] (read-out: LUC EC50 (μM) hRORg) was > 3 µM; in experiment [2] (read-out: LUC EC50 (μM) mRORg), < 3 µM.
Regarding `Cc1ccc(NC(=O)C[C@H](CC(C)(C)O)c2nnc([C@H]3C[C@@H](CC(C)C)C3)n2C2CC2)c(C)c1` [Example F-599], the EC50 in experiment [1] (read-out: LUC EC50 hRORg) and in experiment [2] (read-out: LUC EC50 mRORg) was < 3 µM in each case.
In the case of `CCn1c(CCC(=O)Nc2cccc3ccccc23)nnc1C1CCCCC1` [Example F-20], the EC50 in experiment [1] (read-out: LUC EC50 (μM) hRORg) and in experiment [2] (read-out: LUC EC50 (μM) mRORg) was > 3 µM throughout.
With `Cc1cccc(CNC(=O)CCc2nnc(CCC(C)C)n2C2CC2)c1` [Example F-60], the EC50 in experiment [1] (read-out: LUC EC50 (μM) hRORg) and in experiment [2] (read-out: LUC EC50 (μM) mRORg) was > 3 µM each time.
On to `CNC(=O)CC(CC(=O)Nc1ccc(C)cc1C)c1nnc(CCCC(C)C)n1C1CC1` (racemic) [Example F-265], for which the figures for the EC50 in experiment [1] (read-out: LUC EC50 (μM) hRORg) and in experiment [2] (read-out: LUC EC50 (μM) mRORg) were > 3 µM and < 3 µM, respectively.
`Cc1ccc(NC(=O)C[C@H](CCC(=O)O)n2nnc([C@H]3C[C@@H](CC(C)(C)C)C3)c2C2CC2)c(F)c1` [Example F-703]: the EC50 in experiment [1] (read-out: LUC EC50 hRORg) and in experiment [2] (read-out: LUC EC50 mRORg) was < 3 µM each time.
Take `CC(=O)N1C[C@H](C(=O)Nc2ccc(Cl)cc2C)[C@@H](c2nnc([C@H]3C[C@@H](CC(C)(C)F)C3)n2C2CC2)C1` [Example F-611]: the EC50 in experiment [1] (read-out: LUC EC50 hRORg) and in experiment [2] (read-out: LUC EC50 mRORg) was < 3 µM in each case.
In the case of `CC(C)C[C@H]1C[C@@H](c2nnc([C@@H](CCO)CC(=O)NCc3ccc(Cl)cc3Cl)n2C2CC2)C1` [Example F-521], the EC50 in experiment [1] (read-out: LUC EC50 hRORg) and in experiment [2] (read-out: LUC EC50 mRORg) was < 3 µM each time.
Consider `Cc1ccc(NC(=O)CCc2nnc(-c3ccc(CC(C)C)cc3)n2C2CC2)c(C)c1` [Example F-404], for which the EC50 in experiment [1] (read-out: LUC EC50 (μM) hRORg) and in experiment [2] (read-out: LUC EC50 (μM) mRORg) was < 3 µM throughout.
As for `Cc1ccc(NC(=O)CCc2nnc([C@H]3C[C@@H](CC(C)(C)C)C3)n2C2CC2)c(C)c1` [Example F-426], the EC50 in experiment [1] (read-out: LUC EC50 (μM) hRORg) and in experiment [2] (read-out: LUC EC50 (μM) mRORg) was < 3 µM each time.
Turning to `Cc1ccc(NC(=O)CC(Cc2nccs2)c2nnc([C@H]3C[C@@H](CC(C)C)C3)n2C2CC2)c(C)c1` (mixture of isomers) [Example F-439], the EC50 in experiment [1] (read-out: LUC EC50 (μM) hRORg) and in experiment [2] (read-out: LUC EC50 (μM) mRORg) was < 3 µM throughout.
On to `Cc1ccc(NC(=O)C[C@H](CCCO)c2noc([C@H]3C[C@@H](CC(C)(C)C)C3)c2C2CC2)c(C)c1O` [Example F-699], for which the EC50 in experiment [1] (read-out: LUC EC50 hRORg) and in experiment [2] (read-out: LUC EC50 mRORg) was < 3 µM each time.
Turning to `CC(=O)N1C[C@@H](C(=O)Nc2ccc(C)cc2C)[C@H](c2nnc([C@H]3C[C@@H](CC(C)(C)C)C3)n2C2CC2)C1` [Example F-462], the EC50 in experiment [1] (read-out: LUC EC50 (μM) hRORg) and in experiment [2] (read-out: LUC EC50 (μM) mRORg) was < 3 µM each time.
For the compound `Cc1cnccc1CNC(=O)CCc1nnc(CCC(C)C)n1C1CC1` [Example F-111], the EC50 in experiment [1] (read-out: LUC EC50 (μM) hRORg) and in experiment [2] (read-out: LUC EC50 (μM) mRORg) was > 3 µM in each case.
For `CC(=O)N1C[C@@H](C(=O)Nc2ccc(C)cc2C)[C@H](c2nnc([C@H]3C[C@@H](OC(C)C)C3)n2C2CC2)C1` [Example F-337], the EC50 in experiment [1] (read-out: LUC EC50 (μM) hRORg) and in experiment [2] (read-out: LUC EC50 (μM) mRORg) was > 3 µM in each case.
On to `Cc1ccc(NC(=O)C[C@H](CC(C)C)c2nnc(-c3cc(CC(C)C)no3)n2C2CC2)c(C)c1` [Example F-591], for which the EC50 in experiment [1] (read-out: LUC EC50 hRORg) and in experiment [2] (read-out: LUC EC50 mRORg) was < 3 µM in each case.
